# Laboratory results as given in patent US20250009743A1, “METHODS OF TREATING CANCERS USING STING AGONISTS” (Dana-Farber Cancer Institute, Inc., priority 2021, published 2025).
# Assays:
# BP-sgControl tumors = assay: BP-sgControl tumor growth and survival in FVB mice; type: in vivo, mouse; conditions: DMXAA 10 mg/kg i.p. weekly; olaparib 50 mg/kg i.p. q.d.; FIG. 11G
# Procedure: Primary mammary tumor cells for orthotopic injection were resuspended in serum-free DMEM containing 40% matrigel (Corning). 5×10^5 tumor cells in a total volume of 100 μL were injected orthotopically into the thoracic mammary fat pads of 8-week-old female FVB/NJ mice (The Jackson Laboratory). Tumor growth was examined by measuring the greatest longitudinal diameter (length) and the greatest transverse diameter (width) with digital calipers, and tumor volume was calculated by use of the modified ellipsoid formula (0.52×length×width2). Tumors were measured 2-3 times a week. All tumor measurements within single cohorts were performed by the same researcher. Tumor-bearing mice were randomized prior to start of treatment. Drug treatments were started when mean tumor volumes approximated 50-100 mm3. Mice were euthanized by CO2 inhalation when tumor volumes met humane endpoints described in the IACUC (20 mm diameter) protocols or upon severe health deterioration.
# Olaparib (MedChem, #HY-10162) was prepared by diluting 100 mg/l mL stocks in DMSO with 10% (2-Hydroxypropyl)-β-cyclodextrin (HPCD, MedChem, #101103) in PBS and administered immediately after drug preparation by intraperitoneal (i.p.) injection at a dose of 50 mg/kg body weight daily. DMXAA (Sigma, #D5817) was reconstituted at 10 mg/mL in 7.5% NaHCO3(Gibco). […]
# PBM tumor cells = assay: Cytokine array of medium of PBM cells; type: cell-based, mouse; conditions: olaparib-treated PBM cells; FIG. 19F
# Procedure: The PBM tumor cells were cultured in 6-well plate for 24 hrs and treated with olaparib or vehicle control. Drug was removed after 24 hrs' treatment, and cells were cultured in fresh medium for another 48 hrs. Cell culture supernatants were obtained by centrifugation at 1,500 g for 5 min at 4° C. to remove all the debris and cells then subjected to Cytokine array analysis (ARY028, R&D system) according to manufactories introduction. Briefly, the cell culture supernatants were mixed with a cocktail of biotinylated detection antibodies, and then incubated with the Mouse Cytokine Array. The array was then incubated with streptavidin-horseradish peroxidase followed by chemiluminescent detection. Array images were analyzed using the Image J software.
# PBM-R tumor cells = assay: γ-H2AX flow cytometry in PBM-R cells; type: cell-based, mouse; conditions: 1 μM olaparib 24 hours
# Procedure: (§1) Analysis of p-STAT3 and γ-H2AX (p-HA2X-Ser139) was performed according to a two-step protocol for intracellular phosphorylated signaling proteins (Thermo Fisher). Briefly, cells were incubated with LIVE/DEAD Fixable Aqua Dead Cell Stain for 30 min. After washing, cells were suspended in 100 μl PBS and then fixed by adding an equal volume of IC Fixation Buffer (CAT #00-822-49, Thermo Fisher) directly to cells and incubated at room temperature for 20 min followed by fixing with ice-cold 90% methanol in PBS for 30 min. The fixed cells were blocked and stained with p-STAT3 or γ-H2AX antibodies for flow cytometry analysis as described above.
# [1] = test system: STAT3 phosphorylation in PBM tumor cells; assay: p-STAT3 (Y705) in PBM tumor cells (flow cytometry, Western blot); type: cell-based, mouse; conditions: PARPi-naïve PBM cells, 24 hours; FIGS. 19D and 20B
# Procedure: as §1
# Tumor cells were harvested and lysed with ice-cold RIPA buffer supplemented with protease phosphatase inhibitor cocktail (Thermo Fisher). Protein concentration was determined using a Pierce BCA Protein Assay Kit (Thermo Fisher). About 50 μg protein extracts were loaded and separated by SDS-PAGE, and then transferred to polyvinylidene fluoride (PVDF) membranes. After blocking with 5% non-fat milk (Bio-Rad) in PBST (PBS plus 0.2% Tween 20) at room temperature for 1 hr, membranes were incubated with primary antibodies overnight at 4° C.
Structure (SMILES),BP-sgControl tumor growth (BP-sgControl tumors),"STAT3-regulated chemokines (CCL2, CX3CL1, CCL20 and CXCL1) in CM (PBM tumor cells)",DNA damage (γ-H2AX) (PBM-R tumor cells; PBM-R3 cells),DNA damage (γ-H2AX) (PBM-R tumor cells; PBM-R tumor cells),phosphorylation of STAT3 [1]
"Cc1ccc2c(=O)c3cccc(CC(=O)O)c3oc2c1C [DMXAA, 5,6-dimethyl-xanthenone-4-acetic acid]",no significant impact,–,–,–,–
O=C(c1cc(Cc2n[nH]c(=O)c3ccccc23)ccc1F)N1CCN(C(=O)C2CC2)CC1 [olaparib],–,significantly increased,a little DNA damage signaling,significantly increased DNA damage,increased phosphorylation levels of STAT3 in cultured PBM cells in a dose-dependent manner
